Results taken from patent US8815891B2, “Tricyclic derivative or pharmaceutically acceptable salts thereof, preparation method thereof, and pharmaceutical composition containing the same” (Je Il Pharmaceutical Co., Ltd., priority 2008, dated 2014).
Where a name gives a salt, the structure may show the parent alone. Read-outs that look alike come from different tables or passages of the source.

Key:
[1] = target: PARP-1 enzyme (Homo sapiens (Human), UniProt P09874); test: Poly(ADP-ribose)polymerase [PARP-1] enzyme inhibitory activity (Trevigen PARP Assay kit); type: biochemical; details: read-out: PARP-1 Inhibitory activity IC50
How it was run: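 On histone-coated plates, PARP-1 (0.12 unit/well) reacted with compound for 30 min at 25 °C in a 2× cocktail of 1.95 mM NAD+, 50 μM biotinylated NAD+ and activated DNA (Tris pH 8.0, 25 mM MgCl2). Biotin-ribosylated histone was detected with streptavidin-HRP and TACS-Sapphire substrate, stopped with HCl and read at 450 nm.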

[2] = test system: A549 cell line; test: Cell growth inhibition of cancer cell lines (SRB assay), A549; type: cell-based; details: for SN-38 PF50 / Temozolomide PF50: 2 μM compound; for SN-38 PF50: GI50 SN-38 alone / GI50 with compound; for Temozolomide PF50: GI50 temozolomide alone / GI50 with compound; for GI50: Homo sapiens, 72 hours
Method: (§1) The tests on cell growth inhibitory activity were performed with respect to A549 (US, ATCC), SK-OV-3 (Korea Research Institute of Chemical Technology; KRICT), HT-29 (US, ATCC), MCF-7 cell (US, ATCC), using Sulforhodamin-B <SRB> Assay (1989, US National Cancer Institute (NCI)) which was developed to measure the in vitro anti-cancer activity of the drug. […] The samples of the compounds of the Examples according to the present invention were used for the tests, and before the tests, the samples were dissolved in dimethylsulfoxide and diluted with the culture medium (RPMI 1640) to be used. The final concentration of the sample was varied in the range of 0.3˜100 μM. After the culture medium was removed from the 96 well plates, the diluted sample solution was added by 100 μl, and cultured in 37° C., 5% CO2 culture medium for 72 hours. The time zero (Tz) plates were collected at the time point of adding the sample. Upon completing the culture, the medium was removed from each well along with Tz plate, then cold 10% trichloroacetic acid (TCA) was added by 100 μl per well. The wells were left at 4° C. for 1 hour, so that the cells were fixed into the bottom of the plates. After the cells were fixed, the plates were rinsed with water five to six times to remove the remaining trichloroacetic acid solution, and moisture was completely dried at room temperature. The cells were dyed for 30 minutes by adding the dye solution in which 0.4% sulforhodamine-B was dissolved in 1% acetic acid solution, by 100 μl per dried wells. The above was rinsed again with 1% acetic acid solution five to six times to ensure that sulforhodamine-B which had not attached to the cells was removed. The plates were again dried at room temperature. 100 μl of 10 mM tris-buffer was then added to dissolve the dye, and the optical density (OD) at 520 nm was measured with the microplate reader. GI50 of the sample regarding cancer cell was calculated as explained below. Time zero (Tz), control value (C) and test value (T) were obtained, in which Tz corresponds to OD value of time at which the sample is applied and culture is started, C corresponds to OD value of the well which is cultured without treatment with the sample, and T corresponds to OD value of the well which is treated with the sample and then cultured. The degree of cell growth inhibition of the sample was measured using: If […] [Mathematical Formula 1]
(§2) Further, the ability of Examples 2, 42, 49, 52, 72, 74, 101 to increase growth inhibition effect of temozolomide and SN-38 at 2 μM was determined.

[3] = test system: SK-OV-3 Cell line; test: Cell growth inhibition of cancer cell lines (SRB assay), SK-OV-3; type: cell-based; details: for SN-38 PF50 / Temozolomide PF50: 2 μM compound; for GI50: Homo sapiens, 72 hours
Method: as §1, §2

[4] = test system: HT-29 Cell line; test: Cell growth inhibition of cancer cell lines (SRB assay), HT-29; type: cell-based; details: for SN-38 PF50 / Temozolomide PF50: 2 μM compound; for GI50: Homo sapiens, 72 hours
Method: as §1, §2

[5] = target: PARP-1 enzyme (Cricetulus griseus (Chinese hamster) (Cricetulus barabensis griseus), UniProt Q9R152); test: Intracellular PARP inhibitory activity (NAD(P)H released by MMS-treated CHO-K1 cells); type: cell-based
Method: In order to verify the ability of the compounds of the present invention to inhibit the PARP-1 enzyme activity, the amount of NAD(P)H accumulated on cell culture medium was measured.
The Chinese hamster ovary cells (CHO-K1) were cultured in RPMI1640 culture medium containing 10% fetal bovine serum (FBS). The cultured CHO-K1 cells were seeded into 96 well plate by 2.9×10^3 cells/well, and cultured for 16 hours under culture condition of 37° C., 5% CO2. After the culture, the cells were treated with the compounds of the Examples at varying concentrations, and cultured at 37° C. for 2 hours. […] The amount of […] released to the culture medium 3, 4, 5 hours after the treatment with MMS was quantified at 450 nm using Wallac EnVision™ (PerkinElmer Oy, Turku, Finland). The transference numbers of the compounds at varying concentrations according to the present invention are the average values obtained from four wells, and the results were calculated using regression analysis.
The Chinese hamster ovary cells (CHO-K1) were treated with the compounds at varying concentration according to the present invention, and the amount of NAD(P)H released into the culture medium 4 hours after the MMS treatment was quantified.

[6] = test system: MCF-7 Cell line; test: Cell growth inhibition of cancer cell lines (SRB assay), MCF-7; type: cell-based; details: for SN-38 PF50 / Temozolomide PF50: 2 μM compound; for GI50: Homo sapiens, MCF7, 72 hours
Method: as §1, §2

[7] = PARP-1 enzyme, histone ribosylation, 450 nm

Chain of PARP-1 enzyme (Cricetulus griseus (Chinese hamster) (Cricetulus barabensis griseus), UniProt Q9R152) (Q9R152 whole entry): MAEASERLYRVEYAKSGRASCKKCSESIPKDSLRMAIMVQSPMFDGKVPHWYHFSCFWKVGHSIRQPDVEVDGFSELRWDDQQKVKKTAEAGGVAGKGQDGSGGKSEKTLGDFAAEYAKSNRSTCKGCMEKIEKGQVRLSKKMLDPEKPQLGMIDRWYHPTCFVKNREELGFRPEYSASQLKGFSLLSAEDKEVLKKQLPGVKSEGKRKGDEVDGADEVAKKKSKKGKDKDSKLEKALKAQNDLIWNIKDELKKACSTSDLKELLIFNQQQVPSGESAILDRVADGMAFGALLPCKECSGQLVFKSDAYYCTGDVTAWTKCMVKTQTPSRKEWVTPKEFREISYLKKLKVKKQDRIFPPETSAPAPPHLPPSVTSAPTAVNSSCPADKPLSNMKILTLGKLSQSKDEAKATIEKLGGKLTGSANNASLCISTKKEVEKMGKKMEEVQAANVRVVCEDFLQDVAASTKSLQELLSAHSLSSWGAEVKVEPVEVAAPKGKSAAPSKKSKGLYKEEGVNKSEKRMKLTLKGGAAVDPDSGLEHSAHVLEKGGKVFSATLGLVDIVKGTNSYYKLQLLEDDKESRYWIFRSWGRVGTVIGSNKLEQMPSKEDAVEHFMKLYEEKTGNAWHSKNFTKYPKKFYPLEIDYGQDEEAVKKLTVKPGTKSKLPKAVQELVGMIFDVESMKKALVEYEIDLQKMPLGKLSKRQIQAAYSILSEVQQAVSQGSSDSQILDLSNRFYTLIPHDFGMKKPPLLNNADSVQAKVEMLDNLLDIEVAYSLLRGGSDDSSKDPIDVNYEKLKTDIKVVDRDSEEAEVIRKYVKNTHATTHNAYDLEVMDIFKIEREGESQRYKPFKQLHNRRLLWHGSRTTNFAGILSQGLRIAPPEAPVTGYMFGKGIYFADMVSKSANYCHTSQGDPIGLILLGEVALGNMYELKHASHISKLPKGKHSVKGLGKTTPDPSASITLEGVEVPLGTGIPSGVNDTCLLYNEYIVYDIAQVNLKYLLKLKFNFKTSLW
Chain of PARP-1 enzyme (Homo sapiens (Human), UniProt P09874) (P09874 whole entry): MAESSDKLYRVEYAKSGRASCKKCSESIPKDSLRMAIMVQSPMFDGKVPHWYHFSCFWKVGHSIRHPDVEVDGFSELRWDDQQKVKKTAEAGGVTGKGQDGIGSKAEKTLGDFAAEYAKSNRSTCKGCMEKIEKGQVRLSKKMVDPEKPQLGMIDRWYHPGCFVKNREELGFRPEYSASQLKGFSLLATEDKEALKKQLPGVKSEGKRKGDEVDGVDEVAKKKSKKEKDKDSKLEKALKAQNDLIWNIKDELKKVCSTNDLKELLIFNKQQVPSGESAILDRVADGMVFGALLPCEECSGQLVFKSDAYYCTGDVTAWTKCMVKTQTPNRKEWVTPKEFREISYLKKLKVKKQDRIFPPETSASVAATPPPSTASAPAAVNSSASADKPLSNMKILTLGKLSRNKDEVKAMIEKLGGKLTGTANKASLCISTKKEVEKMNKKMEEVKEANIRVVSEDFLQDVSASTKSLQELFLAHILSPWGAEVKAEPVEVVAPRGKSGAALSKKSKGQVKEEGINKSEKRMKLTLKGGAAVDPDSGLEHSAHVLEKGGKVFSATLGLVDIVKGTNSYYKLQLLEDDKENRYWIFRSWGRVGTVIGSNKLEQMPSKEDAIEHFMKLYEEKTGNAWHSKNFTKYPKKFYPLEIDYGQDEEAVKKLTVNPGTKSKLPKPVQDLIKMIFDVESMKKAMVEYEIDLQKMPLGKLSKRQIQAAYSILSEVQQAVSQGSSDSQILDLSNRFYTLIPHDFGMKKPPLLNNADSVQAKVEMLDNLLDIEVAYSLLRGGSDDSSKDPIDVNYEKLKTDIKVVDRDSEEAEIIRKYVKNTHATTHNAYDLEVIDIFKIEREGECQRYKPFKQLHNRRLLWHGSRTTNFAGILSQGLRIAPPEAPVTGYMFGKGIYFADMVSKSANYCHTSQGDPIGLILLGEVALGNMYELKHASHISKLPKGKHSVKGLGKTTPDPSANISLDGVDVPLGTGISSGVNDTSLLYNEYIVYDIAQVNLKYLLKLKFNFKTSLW

SMILES	IC50 [1, 7] [nM]	SN-38 PF50 [2]	Temozolomide PF50 [2]	GI50 [2] [nM]	SN-38 PF50 [3]	Temozolomide PF50 [3]	GI50 [3] [nM]	SN-38 PF50 [4]	Temozolomide PF50 [4]	GI50 [4] [nM]	IC50 [5] [nM]	SN-38 PF50 [6]	Temozolomide PF50 [6]	GI50 [6] [nM]	IC50 [1] [nM]
COc1cccc2[nH]c(=O)c3c(c12)NCCC3.Cl [Example 2, 10-Methoxy-1,2,3,4-tetrahydrobenzo[h][1,6]naphthyridine-5(6H)-one hydrochloride]	600	2.2	2.4	59000	1.2	>3.2	50000	1.4	>1.5	70000	920	1.4	1.7	51000	
O=c1[nH]c2ccc(OCCCCN3CCCCC3)cc2c2c1CCCN2 [Example 29, 9-[4-(Piperidine-1yl)butoxy]-1,2,3,4-tetrahydrobenzo[h][1,6]naphthyridine-5(6H)-one dihydrochloride]		1.5	2.0	> 100000	1.5	>1.7	> 100000	1.5	>1.2	91000		2.2	2.1	> 100000	2850
CCN(CC)Cc1ccc2c3c(c(=O)[nH]c2c1)CCCN3 [Example 42, 8-[(Diethylamino)methyl]-1,2,3,4-tetrahydrobenzo[h][1,6]naphthyridine-5(6H)-one dihydrochloride]		1.6	2.3	> 100000	1.6	>2.1	> 100000	2.1	>1.4	81000	850	1.6	1.6	75000	220
CNCc1ccc2c3c(c(=O)[nH]c2c1)CCCN3 [Example 52, 8-[(Methylamino)methyl]-1,2,3,4-tetrahydrobenzo[h][1,6]naphthyridine-5(6H)-one dihydrochloride]		2.2	1.5	> 100000	1.4	>2.2	> 100000	1.4	>1.3	90000		1.1	1.5	> 100000	70
COc1cc(CN(C)C)cc2[nH]c(=O)c3c(c12)NCCC3 [Example 72, 8-[(Dimethylamino)methyl]-10-methoxy-1,2,3,4-tetrahydrobenzo[h][1,6]naphthyridine-5(6H)-one dihydrochloride]		3.8	3.4	> 100000	1.8	>10.2	> 100000	2.2	>5.2	> 100000	90	2.6	1.7	54000	80
CNCc1cc(OC)c2c3c(c(=O)[nH]c2c1)CCCN3 [Example 73, 10-Methoxy-8-[(methylamino)methyl]-1,2,3,4-tetrahydrobenzo[h][1,6]naphthyridine-5(6H)-one dihydrochloride]											1390				100
COc1cc(CNC(C)(C)C)cc2[nH]c(=O)c3c(c12)NCCC3 [Example 87, 8-[(t-Butylamino)methyl]-10-methoxy-1,2,3,4-tetrahydrobenzo[h][1,6]naphthyridine-5(6H)-one dihydrochloride]											820				610
CCOc1cc(CNC)cc2[nH]c(=O)c3c(c12)NCCC3 [Example 103, 10-Etoxy-8-[(methylamino)methyl]-1,2,3,4-tetrahydrobenzo[h][1,6]naphthyridine-5(6H)-one dihydrochloride]	120										820				
CCNCc1cc(OCC)c2c3c(c(=O)[nH]c2c1)CCCN3 [Example 104, 10-Etoxy-8-[(ethylamino)methyl]-1,2,3,4-tetrahydrobenzo[h][1,6]naphthyridine-5(6H)-one dihydrochloride]	60										1650				
COc1cc(CN2CCSCC2)cc2[nH]c(=O)c3c(c12)NCCC3 [Example 106, 10-Methoxy-8-(thiomorpholinomethyl)-1,2,3,4-tetrahydrobenzo[h][1,6]naphthyridine-5(6H)-one dihydrochloride]											290				90
COc1cc(CN2CCC(N3CCOCC3)CC2)cc2[nH]c(=O)c3c(c12)NCCC3 [Example 108, 10-Methoxy-8-[(4-morpholinopiperidine-1-yl)methyl]-1,2,3,4-tetrahydrobenzo[h][1,6]naphthyridine-5(6H)-one trihydrochloride]											110				140
COc1cc(CN)cc2[nH]c(=O)c3c(c12)NCCC3 [Example 109, 8-(Aminomethyl)-10-methoxy-1,2,3,4-tetrahydrobenzo[h][1,6]naphthyridine-5(6H)-one dihydrochloride]											940				70
CCCOc1cc(CN(C)C)cc2[nH]c(=O)c3c(c12)NCCC3 [Example 110, 8-[(Dimethylamino)methyl)]-10-propoxy-1,2,3,4-tetrahydrobenzo[h][1,6]naphthyridine-5(6H)-one dihydrochloride]	80										90				
CCCOc1cc(CN2CCOCC2)cc2[nH]c(=O)c3c(c12)NCCC3 [Example 111, 8-(Morpholinomethyl)-10-propoxy-1,2,3,4-tetrahydrobenzo[h][1,6]naphthyridine-5(6H)-one dihydrochloride]											1330				960
CCOc1cc(CN)cc2[nH]c(=O)c3c(c12)NCCC3 [Example 113, 8-(Aminomethyl)-10-etoxy-1,2,3,4-tetrahydrobenzo[h][1,6]naphthyridine-5 (6H)-one dihydrochloride]	100										1430				
CCCOc1cc(CN)cc2[nH]c(=O)c3c(c12)NCCC3 [Example 114, 8-(Aminomethyl)-10-propoxy-1,2,3,4-tetrahydrobenzo[h][1,6]naphthyridine-5(6H)-one dihydrochloride]											1920				190
COCCOc1cc(CN2CCOCC2)cc2[nH]c(=O)c3c(c12)NCCC3 [Example 117, 10-(2-Methoxyetoxy)-8-(morpholinomethyl)-1,2,3,4-tetrahydrobenzo[h][1,6]naphthyridine-5(6H)-one dihydrochloride]	610										6320				
